This is an account of results in ChEMBL document CHEMBL2203134, “Discovery of XL888: a novel tropane-derived small molecule inhibitor of HSP90” (Bioorg Med Chem Lett, 2012).

pIC50: −log10 of the molar value. ≈ marks a conversion by molar mass, not a printed value. Calls of active or inactive are those of the source. The calls are words filed in the database; no cut-off is given here.

Data set [1] has as its system MKN-45. The experiment in a line: Antiproliferative activity against human MKN45 cells overexpressing MET after 48 hrs by BrdU labeling assay. It counts as functional, cell-based. The settings on record: MKN-45, 48 h. (In general: Dividing cells build labelled thymidine or BrdU into new DNA.)
The nature of data set [2]: Oral bioavailability in rat at 5 mg/kg. The following applies: in vivo. It counts as ADME, organism-based.
The nature of data set [3]: Clearance in rat at 5 mg/kg, iv. It counts as ADME, organism-based. The arrangement: dose 5 mg/kg, route intravenous. The following applies: in vivo.
In data set [4] the test system is COLO 205. The experiment in a line: Antiproliferative activity against human COLO205 cells overexpressing Braf after 48 hrs by BrdU labeling assay. It counts as functional, cell-based. The following applies: COLO 205, 48 h.
Data set [5] relates to MDA-MB-453. The experiment in a line: Antiproliferative activity against human MDA-MB-453 cells overexpressing Her2 after 48 hrs by BrdU labeling assay. The settings on record: MDA-MB-453, 48 h. It counts as functional, cell-based.
Data set [6] in a line: Drug uptake in human NCI-N87 tumor xenografted in mouse at 100 mg/kg administered QD for 3 days measured at 24 hrs post-last dose. It counts as ADME, organism-based, Neoplasm. Also on record: dose 100 mg/kg. The settings on record: human NCI-N87 tumor xenograft, read-out: Drug uptake.
Data set [7] is described as follows: Apparent permeability across MDCK cells. The following applies: dog. It counts as ADME, cell-based, Canis lupus familiaris.
The test system of data set [8] is Mus musculus. The experiment in a line: Inhibition of Hsp90 in human NCI-N87 cells xenografted in mouse assessed as Her2 degradation at 100 mg/kg administered QD for 3 days measured at 8 hrs post-last dose relative to control. It counts as functional.
In data set [9] the test system is A549. As to the kind of experiment: Antiproliferative activity against human A549 cells overexpressing Kras after 48 hrs by BrdU labeling assay. It counts as functional, cell-based. The following applies: A549, 48 h.
Data set [10] has as its system BT-474. The experiment in a line: Antiproliferative activity against human BT474 cells overexpressing Her2 after 48 hrs by BrdU labeling assay. It counts as functional, cell-based. The following applies: BT-474, 48 h.
In data set [11] the test system is Mus musculus. The experiment in a line: Inhibition of Hsp90 in human NCI-N87 cells xenografted in mouse assessed as Hsp70 upregulation at 100 mg/kg administered QD for 3 days measured at 8 hrs post-last dose relative to control. It counts as functional. On the technique in general: A xenograft is tissue or cells of one species grown in another, often human tumour cells in immunodeficient mice.

The nature of data set [12]: Plasma concentration in mouse xenografted with human NCI-N87 cells at 100 mg/kg administered QD for 3 days measured 24 hrs post-last dose. It counts as ADME, organism-based. The arrangement: dose 100 mg/kg.
Data set [13] in a line: Drug uptake in human NCI-N87 tumor xenografted in mouse at 100 mg/kg administered QD for 3 days measured at 8 hrs post-last dose. It counts as ADME, organism-based, Neoplasm. The arrangement: dose 100 mg/kg. The following applies: human NCI-N87 tumor xenograft, read-out: Drug uptake.
Data set [14] can be described thus: Plasma concentration in mouse xenografted with human NCI-N87 cells at 100 mg/kg administered QD for 3 days measured 8 hrs post-last dose. The arrangement: dose 100 mg/kg. It counts as ADME, organism-based.
The nature of data set [15]: Half life in rat at 5 mg/kg, iv. It counts as ADME, organism-based. The arrangement: dose 5 mg/kg, route intravenous. The settings on record: in vivo.
The subject of data set [16] is Mus musculus. The experiment in a line: Inhibition of Hsp90 in human NCI-N87 cells xenografted in mouse assessed as Raf1 degradation at 100 mg/kg administered QD for 3 days measured after 8 hrs post-last dose relative to control. It counts as functional, organism-based. The arrangement: dose 100 mg/kg.
Data set [17] concerns NCI-N87. The experiment in a line: Antitumor activity against human NCI-N87 cells xenografted in mouse assessed as tumor growth inhibition at 100 mg/kg administered QD for 3 days in a week relative to control. It counts as functional. The following applies: NCI-N87, 72 h, read-out: TGI.
Data set [18] relates to MCF7. As to the kind of experiment: Antiproliferative activity against human MCF7 cells overexpressing PI3K after 48 hrs by BrdU labeling assay. It counts as functional, cell-based. The following applies: MCF7, 48 h.
In data set [19] the test system is Mus musculus. The experiment in a line: Inhibition of Hsp90 in human NCI-N87 cells xenografted in mouse assessed as Raf1 degradation at 100 mg/kg administered QD for 3 days measured at 8 hrs post-last dose relative to control. It counts as functional.
Data set [20] can be described thus: Drug uptake in human NCI-N87 tumor xenografted in mouse at 100 mg/kg administered QD for 3 days measured at 96 hrs post-last dose. It counts as ADME, organism-based, Neoplasm. Also on record: dose 100 mg/kg. The following applies: human NCI-N87 tumor xenograft, read-out: Drug uptake.
Data set [21] concerns the target T1, Heat shock protein HSP90 (Homo sapiens, UniProt P07900+P08238). As to the kind of experiment: Inhibition of Hsp90 in human NCI-N87 cells assessed as Her2 degradation after 24 hrs by Western blot analysis. It counts as cell-based. In general terms: A western blot detects proteins with antibodies after separation by electrophoresis.
Data set [22] concerns NCI-N87. As to the kind of experiment: Antitumor activity against human NCI-N87 cells xenografted in mouse assessed as tumor growth inhibition at 60 mg/kg administered QD relative to control. It counts as functional. The following applies: read-out: TGI.
For data set [23], the system named is Mus musculus. As to the kind of experiment: Inhibition of Hsp90 in human NCI-N87 cells xenografted in mouse assessed as Her2 degradation at 100 mg/kg administered QD for 3 days measured up to 48 hrs post-last dose relative to control. It counts as functional.
The test system of data set [24] is Rattus norvegicus. As to the kind of experiment: Dose normalized AUC in rat at 5 mg/kg, iv. It counts as ADME, organism-based. The following applies: in vivo. The arrangement: dose 5 mg/kg, route intravenous.
In data set [25] the test system is HN5. The experiment in a line: Antiproliferative activity against human HN5 cells overexpressing EGFR after 48 hrs by BrdU labeling assay. It counts as functional, cell-based. The following applies: HN5, 48 h.
Data set [26] relates to NCI-H1975. The experiment in a line: Antiproliferative activity against human NCI-H1975 cells overexpressing EGFR after 48 hrs by BrdU labeling assay. It counts as functional, cell-based. The settings on record: NCI-H1975, 48 h.
For data set [27], the system named is SK-MEL-28. The experiment in a line: Antiproliferative activity against human SK-MEL-28 cells overexpressing Braf after 48 hrs by BrdU labeling assay. The settings on record: SK-MEL-28, 48 h. It counts as functional, cell-based.
In data set [28] the test system is Plasma. As to the kind of experiment: Plasma concentration in mouse xenografted with human NCI-N87 cells at 100 mg/kg administered QD for 3 days measured 96 hrs post-last dose. It counts as ADME, organism-based. Also on record: dose 100 mg/kg. The following applies: in vivo, BLD = below limit of detection.
The test system of data set [29] is Mus musculus. The experiment in a line: Inhibition of Hsp90 in human NCI-N87 cells xenografted in mouse assessed as Hsp70 upregulation at 100 mg/kg administered QD for 3 days measured at 96 hrs post-last dose relative to control. It counts as functional.
Data set [30] relates to NCI-N87. As to the kind of experiment: Antiproliferative activity against human NCI-N87 cells overexpressing Her2 after 48 hrs by BrdU labeling assay. It counts as functional, cell-based. The following applies: NCI-N87, 48 h.
Data set [31] has as its system NCI-N87. As to the kind of experiment: Antitumor activity against human NCI-N87 cells xenografted in mouse assessed as tumor regression at 100 mg/kg administered QD for 3 days in a week relative to control. It counts as functional.
Data set [32] is described as follows: Drug uptake in human COLO205 tumor xenografted in mouse at 100 mg/kg administered QD for 2 days measured 8 hrs post-last dose. The arrangement: dose 100 mg/kg. It counts as ADME, organism-based, Neoplasm. The settings on record: human COLO205 tumor xenograft, read-out: Drug uptake.
The subject of data set [33] is Mus musculus. The experiment in a line: Inhibition of Hsp90 in human COLO205 cells xenografted in mouse assessed as Her2 degradation at 100 mg/kg administered QD for 2 days measured 8 hrs post-last dose. It counts as functional. The following applies: COLO 205.
Data set [34] can be described thus: Drug metabolism in mouse liver microsomes at 15 uM after 30 mins. It counts as ADME, Microsome. The following applies: read-out: Drug metabolism.
The nature of data set [35]: Kinetic solubility of the compound. It counts as physicochemical. The settings on record: read-out: Kinetic_solubility.
Data set [36] has as its target T1, Heat shock protein HSP90. The experiment in a line: Inhibition of Hsp90 in human A549 cells assessed as Raf1 degradation after 24 hrs by Western blot analysis. It counts as cell-based.
Data set [37] addresses T1, Heat shock protein HSP90. As to the kind of experiment: Displacement of biotinylated geldanamycin from human His-tagged Hsp90 by TR-FRET assay. It counts as protein assay.
The test system of data set [38] is Mus musculus. As to the kind of experiment: Inhibition of Hsp90 in human COLO205 cells xenografted in mouse assessed as Raf1 degradation at 100 mg/kg administered QD for 2 days measured 8 hrs post-last dose. It counts as functional. The following applies: COLO 205.
The nature of data set [39]: Drug metabolism in human liver microsomes at 15 uM after 30 mins. The following applies: read-out: Drug metabolism. It counts as ADME, Microsome.

With `CC[C@@H](C)Nc1cc(C(=O)NC2CC3CCC(C2)N3c2ccc(C(=O)C3CC3)cn2)c(C)cc1C(N)=O` (some centres undefined), the pIC50 (as a rule, −log10 of the IC50, conventionally taken in molar units) in [1] is 7.34; in [4], 7.94; in data set [5] it was 7.80; in data set [9], 8.37; in data set [10] it was 10.00; in data set [18], 8.39. For the same compound, the pIC50 was 8.26 in data set [25], 9.15 in data set [26], 9.52 in [27] and 7.66 in data set [30]. The bioavailability (in general, dose-corrected exposure relative to a reference, in per cent) in [2] is 30%. For the same compound, the clearance – broadly, a measure of how efficiently the substance is removed, as volume per time – in data set [3] is 0.92 L/h/kg. The concentration at 24 h came to 2.86 µM in data set [6] and 0.07 µM in data set [12]. The Papp (usually the rate of passage across a membrane or cell layer, normalised by area and donor concentration) in [7] came out at 320 nm/s. For the same compound, the inhibition in vivo at 100 mg/kg in data set [8] was 92%; in [11], 234%; in [17], over 100%; in [19], 56%; in data set [23], 75%; in data set [29] it was 343%. Also, the concentration at 8 h in [13] was 5.39 µM; in data set [14], 2.26 µM. Further, the half-life – broadly, the time in which the quantity being followed falls by half – in data set [15] is 1.4 h. Besides, in data set [16], the inhibition result was “inactive”. Moreover, the concentration at 96 h in data set [20] was found to be 1.82 µM. Further, in [21], the half-inhibitory concentration (IC50) – broadly, the midpoint of a concentration-inhibition curve – came to 56 nM. Moreover, the inhibition in vivo at 60 mg/kg in [22] was found to be 100%. The compound also yielded an AUC/dose in [24] of 2.23 µM·kg·h/mg. For the same compound, the Cp result in [28] is listed as “BLD”. Further, the Activity in data set [31] was determined as 21%.

In data set [2], `COc1cccc(C(=O)NC2CC3CCC(C2)N3c2ccc(C(N)=O)cn2)c1C` (centres undefined) came in with a bioavailability of 81%. Further, the clearance in data set [3] is 0.369 L/h/kg. The Papp in [7] was 133 nm/s. For the same compound, the concentration at 8 h in data set [32] turned out to be 6.7 µM. In addition, the inhibition in vivo at 100 mg/kg in data set [33] is 63%. Besides, the metabolised at 0.5 h, 15 µM was 29% in [34] and 21% in data set [39]. Also, in [15], the half-life was 2.1 h. Besides, in [35], the solubility kinetic was found to be 470 µM (≈ 185 µg/mL). The IC50 in data set [36] amounted to 3800 nM; in [37], 641 nM. Also, in data set [24], the AUC/dose turned out to be 6.3 µM·kg·h/mg. Also, the inhibition entry in data set [38] is “inactive”.
